From the supplement of paper PMC10307832

Tests used:
Test in all cases: relative viability (nuclei count vs DMSO), 5 days (fraction); higher = more cells survive
[1] = compound: C(C(=O)C(=O)O)Br [Bromopyruvate] + CC(C)C[C@H](NC(=O)[C@H](Cc1ccccc1)NC(=O)c1cnccn1)B(O)O [Bortezomib] (partner 0.002 µM)
In short: (§1)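 After 5 days of treatment, lung cancer cells in 1536-well plates were fixed and stained in a single step (final 0.05% Triton X-100, 1% formaldehyde, 1 ug/ml Hoechst) and their nuclei counted on 4× images. Treatment had been applied by pin tool the day after seeding as one drug alone or as a fixed anchor-drug dose with five library-drug doses (not always all listed) in √10 steps. Relative viability is the nuclei count of treated wells divided by that of vehicle wells, and values are medians of duplicate plates.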

[2] = compound: C(C(=O)C(=O)O)Br [Bromopyruvate] + Cc1nc(Nc2ncc(C(=O)Nc3c(C)cccc3Cl)s2)cc(N2CCN(CCO)CC2)n1 [Dasatinib] (partner 0.075 µM)
In short: as §1

[3] = compound: CC(O)(CS(=O)(=O)c1ccc(F)cc1)C(=O)Nc1ccc(C#N)c(C(F)(F)F)c1 [Bicalutamide] + CC(=O)Nc1cccc(-n2c(=O)n(C3CC3)c(=O)c3c(Nc4ccc(I)cc4F)n(C)c(=O)c(C)c32)c1 [Trametinib] (partner 0.02 µM)
In short: as §1

[4] = compound: CC(O)(CS(=O)(=O)c1ccc(F)cc1)C(=O)Nc1ccc(C#N)c(C(F)(F)F)c1 [Bicalutamide] + COc1cc2c(Oc3ccc(NC(=O)C4(C(=O)Nc5ccc(F)cc5)CC4)cc3F)ccnc2cc1OCCCN1CCOCC1 [Foretinib] (partner 0.25 µM)
In short: as §1

HCC-366 was tested, and the relative viability ([1]; first compound 1 µM) was 1.04, the relative viability ([1]; first compound 3.162 µM) was 1.06 and the relative viability ([1]; first compound 10 µM) was 1.38. For the same cell line, the relative viability ([1]; first compound 31.62 µM) was 1.09, the relative viability ([1]; first compound 100 µM) was 1.18 and the relative viability ([2]; first compound 1 µM) was 0.614. For the same cell line, the relative viability ([2]; first compound 3.162 µM) was 0.672, the relative viability ([2]; first compound 10 µM) was 1.01 and the relative viability ([2]; first compound 31.62 µM) was 0.643. It also gave a relative viability ([2]; first compound 100 µM) of 0.585, a relative viability ([3]; first compound 0.08 µM) of 0.388 and a relative viability ([3]; first compound 0.253 µM) of 0.231. For the same cell line, the relative viability ([3]; first compound 0.8 µM) was 0.454, the relative viability ([3]; first compound 2.53 µM) was 0.284 and the relative viability ([4]; first compound 0.08 µM) was 0.937. For the same cell line, the relative viability ([4]; first compound 0.253 µM) was 0.842, the relative viability ([4]; first compound 0.8 µM) was 0.919 and the relative viability ([4]; first compound 2.53 µM) was 0.995.

BEN showed a relative viability ([1]; first compound 1 µM) of 0.897, a relative viability ([1]; first compound 3.162 µM) of 0.724 and a relative viability ([1]; first compound 10 µM) of 0.78. For the same cell line, the relative viability ([1]; first compound 31.62 µM) was 0.836, the relative viability ([1]; first compound 100 µM) was 0.682 and the relative viability ([2]; first compound 1 µM) was 0.367. For the same cell line, the relative viability ([2]; first compound 3.162 µM) was 0.297, the relative viability ([2]; first compound 10 µM) was 0.354 and the relative viability ([2]; first compound 31.62 µM) was 0.26. For the same cell line, the relative viability ([2]; first compound 100 µM) was 0.379, the relative viability ([3]; first compound 0.08 µM) was 1.05 and the relative viability ([3]; first compound 0.253 µM) was 0.94. It also gave a relative viability ([3]; first compound 0.8 µM) of 1.17, a relative viability ([3]; first compound 2.53 µM) of 1.1 and a relative viability ([4]; first compound 0.08 µM) of 0.604. It also gave a relative viability ([4]; first compound 0.253 µM) of 0.609, a relative viability ([4]; first compound 0.8 µM) of 0.791 and a relative viability ([4]; first compound 2.53 µM) of 0.682.

With NCI-H2347 the relative viability ([1]; first compound 1 µM) was 0.862, the relative viability ([1]; first compound 3.162 µM) was 1.19 and the relative viability ([1]; first compound 10 µM) was 0.893. The relative viability ([1]; first compound 31.62 µM) was 0.723, the relative viability ([1]; first compound 100 µM) was 1.08 and the relative viability ([2]; first compound 1 µM) was 0.331. It also gave a relative viability ([2]; first compound 3.162 µM) of 0.297, a relative viability ([2]; first compound 10 µM) of 0.322 and a relative viability ([2]; first compound 31.62 µM) of 0.292. The relative viability ([2]; first compound 100 µM) was 0.278, the relative viability ([3]; first compound 0.08 µM) was 0.283 and the relative viability ([3]; first compound 0.253 µM) was 0.287. For the same cell line, the relative viability ([3]; first compound 0.8 µM) was 0.307, the relative viability ([3]; first compound 2.53 µM) was 0.249 and the relative viability ([4]; first compound 0.08 µM) was 1.26. The relative viability ([4]; first compound 0.253 µM) was 1.35, the relative viability ([4]; first compound 0.8 µM) was 1.34 and the relative viability ([4]; first compound 2.53 µM) was 1.04.

Work on 201T yielded a relative viability ([1]; first compound 1 µM) of 1.11, a relative viability ([1]; first compound 3.162 µM) of 1.08 and a relative viability ([1]; first compound 10 µM) of 1.11. It also gave a relative viability ([1]; first compound 31.62 µM) of 1.1, a relative viability ([1]; first compound 100 µM) of 1.03 and a relative viability ([2]; first compound 1 µM) of 0.585. It also gave a relative viability ([2]; first compound 3.162 µM) of 0.575, a relative viability ([2]; first compound 10 µM) of 0.613 and a relative viability ([2]; first compound 31.62 µM) of 0.574. The relative viability ([2]; first compound 100 µM) was 0.657, the relative viability ([3]; first compound 0.08 µM) was 0.703 and the relative viability ([3]; first compound 0.253 µM) was 0.725. The relative viability ([3]; first compound 0.8 µM) was 0.7, the relative viability ([3]; first compound 2.53 µM) was 0.738 and the relative viability ([4]; first compound 0.08 µM) was 1.01. The relative viability ([4]; first compound 0.253 µM) was 1.02, the relative viability ([4]; first compound 0.8 µM) was 0.892 and the relative viability ([4]; first compound 2.53 µM) was 1.09.

NCI-H520 showed a relative viability ([1]; first compound 1 µM) of 0.6, a relative viability ([1]; first compound 3.162 µM) of 0.595 and a relative viability ([1]; first compound 10 µM) of 0.532. For the same cell line, the relative viability ([1]; first compound 31.62 µM) was 0.49, the relative viability ([1]; first compound 100 µM) was 0.541 and the relative viability ([2]; first compound 1 µM) was 0.216. It also gave a relative viability ([2]; first compound 3.162 µM) of 0.222, a relative viability ([2]; first compound 10 µM) of 0.154 and a relative viability ([2]; first compound 31.62 µM) of 0.251. It also gave a relative viability ([2]; first compound 100 µM) of 0.241, a relative viability ([3]; first compound 0.08 µM) of 0.725 and a relative viability ([3]; first compound 0.253 µM) of 0.363. The relative viability ([3]; first compound 0.8 µM) was 0.939, the relative viability ([3]; first compound 2.53 µM) was 0.432 and the relative viability ([4]; first compound 0.08 µM) was 0.856. It also gave a relative viability ([4]; first compound 0.253 µM) of 0.708, a relative viability ([4]; first compound 0.8 µM) of 0.773 and a relative viability ([4]; first compound 2.53 µM) of 0.621.

NCI-H727 gave a relative viability ([1]; first compound 1 µM) of 1.01, a relative viability ([1]; first compound 3.162 µM) of 0.984 and a relative viability ([1]; first compound 10 µM) of 0.939. It also gave a relative viability ([1]; first compound 31.62 µM) of 0.729, a relative viability ([1]; first compound 100 µM) of 1.01 and a relative viability ([2]; first compound 1 µM) of 0.474. It also gave a relative viability ([2]; first compound 3.162 µM) of 0.301, a relative viability ([2]; first compound 10 µM) of 0.29 and a relative viability ([2]; first compound 31.62 µM) of 0.401. It also gave a relative viability ([2]; first compound 100 µM) of 0.314, a relative viability ([3]; first compound 0.08 µM) of 0.38 and a relative viability ([3]; first compound 0.253 µM) of 0.381. For the same cell line, the relative viability ([3]; first compound 0.8 µM) was 0.414, the relative viability ([3]; first compound 2.53 µM) was 0.399 and the relative viability ([4]; first compound 0.08 µM) was 1. It also gave a relative viability ([4]; first compound 0.253 µM) of 0.689, a relative viability ([4]; first compound 0.8 µM) of 1.23 and a relative viability ([4]; first compound 2.53 µM) of 0.914.

Cell Line HCC-15 has a relative viability ([1]; first compound 1 µM) of 0.98, a relative viability ([1]; first compound 3.162 µM) of 1.03 and a relative viability ([1]; first compound 10 µM) of 1.03. It also gave a relative viability ([1]; first compound 31.62 µM) of 0.99, a relative viability ([1]; first compound 100 µM) of 0.973 and a relative viability ([2]; first compound 1 µM) of 0.654. It also gave a relative viability ([2]; first compound 3.162 µM) of 0.633, a relative viability ([2]; first compound 10 µM) of 0.606 and a relative viability ([2]; first compound 31.62 µM) of 0.744. The relative viability ([2]; first compound 100 µM) was 0.541, the relative viability ([3]; first compound 0.08 µM) was 0.384 and the relative viability ([3]; first compound 0.253 µM) was 0.338. The relative viability ([3]; first compound 0.8 µM) was 0.412, the relative viability ([3]; first compound 2.53 µM) was 0.371 and the relative viability ([4]; first compound 0.08 µM) was 1.04. It also gave a relative viability ([4]; first compound 0.253 µM) of 0.952, a relative viability ([4]; first compound 0.8 µM) of 1.12 and a relative viability ([4]; first compound 2.53 µM) of 1.02.

Work on LCLC-103H yielded a relative viability ([1]; first compound 1 µM) of 1.05, a relative viability ([1]; first compound 3.162 µM) of 0.998 and a relative viability ([1]; first compound 10 µM) of 1.06. For the same cell line, the relative viability ([1]; first compound 31.62 µM) was 1.08, the relative viability ([1]; first compound 100 µM) was 1.16 and the relative viability ([2]; first compound 1 µM) was 0.479. The relative viability ([2]; first compound 3.162 µM) was 0.494, the relative viability ([2]; first compound 10 µM) was 0.413 and the relative viability ([2]; first compound 31.62 µM) was 0.447. It also gave a relative viability ([2]; first compound 100 µM) of 0.54, a relative viability ([3]; first compound 0.08 µM) of 0.705 and a relative viability ([3]; first compound 0.253 µM) of 0.676. It also gave a relative viability ([3]; first compound 0.8 µM) of 0.697, a relative viability ([3]; first compound 2.53 µM) of 0.704 and a relative viability ([4]; first compound 0.08 µM) of 0.748. It also gave a relative viability ([4]; first compound 0.253 µM) of 0.702, a relative viability ([4]; first compound 0.8 µM) of 0.907 and a relative viability ([4]; first compound 2.53 µM) of 0.698.

In the case of NCI-H460, the relative viability ([1]; first compound 1 µM) is reported as 1.06, the relative viability ([1]; first compound 3.162 µM) is reported as 1.14 and the relative viability ([1]; first compound 10 µM) is reported as 1.34. The relative viability ([1]; first compound 31.62 µM) was 0.978, the relative viability ([1]; first compound 100 µM) was 1.07 and the relative viability ([2]; first compound 1 µM) was 0.523. For the same cell line, the relative viability ([2]; first compound 3.162 µM) was 0.509, the relative viability ([2]; first compound 10 µM) was 0.502 and the relative viability ([2]; first compound 31.62 µM) was 0.539. The relative viability ([2]; first compound 100 µM) was 0.494, the relative viability ([3]; first compound 0.08 µM) was 0.139 and the relative viability ([3]; first compound 0.253 µM) was 0.129. The relative viability ([3]; first compound 0.8 µM) was 0.128, the relative viability ([3]; first compound 2.53 µM) was 0.129 and the relative viability ([4]; first compound 0.08 µM) was 1. The relative viability ([4]; first compound 0.253 µM) was 1, the relative viability ([4]; first compound 0.8 µM) was 1.17 and the relative viability ([4]; first compound 2.53 µM) was 0.963.
